Data as given in the CheMixHub ionic liquid set.
± gives the uncertainty stated by the source.

Test: xn = mol fraction of the nth substance listed
Conditions: for electrical conductivity: 101 kPa; for viscosity: 100 kPa

CCCCCCCCCCCC[N+](C)(C)Cc1ccccc1.[Cl-] + CC(C)[C@H](NC(=O)CN)C(=O)O + O
electrical conductivity [S/m]
Conditions	293.15 K	298.15 K	303.15 K	308.15 K	313.15 K
x2 = 0.0008945, x1 = 0.0002772	0.0811 ± 0.0051	0.0911 ± 0.0057	0.102 ± 0.0063	0.114 ± 0.007	0.127 ± 0.0077
x2 = 0.0008945, x1 = 0.0002957	0.0841 ± 0.0053	0.0945 ± 0.0059	0.106 ± 0.0065	0.118 ± 0.0073	0.132 ± 0.008
x2 = 0.0008945, x1 = 0.0003197	0.0879 ± 0.0055	0.099 ± 0.0062	0.112 ± 0.0069	0.124 ± 0.0076	0.138 ± 0.0084
x2 = 0.0008946, x1 = 0.0001647	0.0603 ± 0.0038	0.0672 ± 0.0042	0.0747 ± 0.0046	0.0825 ± 0.0051	0.0908 ± 0.0056
x2 = 0.0008946, x1 = 0.0001903	0.066 ± 0.0041	0.0736 ± 0.0046	0.0819 ± 0.0051	0.0907 ± 0.0056	0.1 ± 0.0061
x2 = 0.0008946, x1 = 0.0002151	0.0707 ± 0.0044	0.0791 ± 0.0049	0.0882 ± 0.0055	0.0978 ± 0.006	0.108 ± 0.0066
x2 = 0.0008946, x1 = 0.0002373	0.0746 ± 0.0047	0.0834 ± 0.0052	0.0932 ± 0.0058	0.103 ± 0.0064	0.115 ± 0.007
x2 = 0.0008946, x1 = 0.0002578	0.0779 ± 0.0049	0.0874 ± 0.0054	0.0977 ± 0.006	0.109 ± 0.0067	0.121 ± 0.0074
x2 = 0.0008947, x1 = 7.118e-05	0.0298 ± 0.0019	0.0334 ± 0.0021	0.0372 ± 0.0023	0.041 ± 0.0025	0.0451 ± 0.0028
x2 = 0.0008947, x1 = 9.37e-05	0.0378 ± 0.0024	0.0423 ± 0.0026	0.0471 ± 0.0029	0.052 ± 0.0032	0.0571 ± 0.0035
x2 = 0.0008947, x1 = 0.0001168	0.0458 ± 0.0029	0.0513 ± 0.0032	0.0569 ± 0.0035	0.0627 ± 0.0039	0.0689 ± 0.0043
x2 = 0.0008947, x1 = 0.00014	0.0533 ± 0.0033	0.0596 ± 0.0037	0.0662 ± 0.0041	0.0729 ± 0.0045	0.0801 ± 0.0049
x2 = 0.0008948, x1 = 4.976e-05	0.022 ± 0.0014	0.0246 ± 0.0015	0.0275 ± 0.0017	0.0304 ± 0.0019	0.0335 ± 0.0021
x2 = 0.001798, x1 = 0.0001623	0.0582 ± 0.0036	0.0649 ± 0.004	0.0722 ± 0.0044	0.0797 ± 0.0049	0.0879 ± 0.0054
x2 = 0.001798, x1 = 0.0001897	0.0643 ± 0.004	0.0719 ± 0.0045	0.08 ± 0.0049	0.0885 ± 0.0054	0.098 ± 0.006
x2 = 0.001798, x1 = 0.0002152	0.0693 ± 0.0044	0.0776 ± 0.0048	0.0866 ± 0.0053	0.096 ± 0.0059	0.106 ± 0.0066
x2 = 0.001798, x1 = 0.0002386	0.0736 ± 0.0046	0.0825 ± 0.0051	0.0922 ± 0.0057	0.102 ± 0.0063	0.114 ± 0.007
x2 = 0.001798, x1 = 0.0002594	0.0773 ± 0.0049	0.0868 ± 0.0054	0.097 ± 0.006	0.108 ± 0.0066	0.12 ± 0.0074
x2 = 0.001798, x1 = 0.0002777	0.0804 ± 0.0051	0.0903 ± 0.0056	0.101 ± 0.0062	0.113 ± 0.007	0.126 ± 0.0077
x2 = 0.001798, x1 = 0.0002962	0.0834 ± 0.0052	0.0939 ± 0.0058	0.105 ± 0.0065	0.118 ± 0.0072	0.131 ± 0.0081
x2 = 0.001798, x1 = 0.0003218	0.0878 ± 0.0055	0.099 ± 0.0061	0.112 ± 0.0069	0.124 ± 0.0077	0.139 ± 0.0086
x2 = 0.001799, x1 = 4.099e-05	0.0199 ± 0.0012	0.0223 ± 0.0014	0.0251 ± 0.0016	0.0278 ± 0.0017	0.0307 ± 0.0019
x2 = 0.001799, x1 = 6.551e-05	0.0284 ± 0.0018	0.0319 ± 0.002	0.0356 ± 0.0022	0.0393 ± 0.0024	0.0433 ± 0.0027
x2 = 0.001799, x1 = 8.875e-05	0.0363 ± 0.0023	0.0406 ± 0.0025	0.0453 ± 0.0028	0.0499 ± 0.0031	0.0549 ± 0.0034
x2 = 0.001799, x1 = 0.0001114	0.0437 ± 0.0027	0.0488 ± 0.003	0.0543 ± 0.0034	0.0598 ± 0.0037	0.066 ± 0.0041
x2 = 0.001799, x1 = 0.000136	0.0512 ± 0.0032	0.0571 ± 0.0035	0.0635 ± 0.0039	0.0695 ± 0.0043	0.0771 ± 0.0048

CS(C)=O + CC(N)C(=O)[O-].COCCCCn1cc[n+](C)c1
Conditions	viscosity [mPa·s]
308.15 K, x2 = 0	1.65 ± 0.02

CCCC[N+](CCCC)(CCCC)CCCC.[Cl-] + CCC(=O)O
Conditions	viscosity [mPa·s]
298 K, x1 = 0.5	3300

CCCCCCCCCCCCCC[P+](CCCCCC)(CCCCCC)CCCCCC.[c-]1c[nH]nn1 + CCCCCCCCCCCCCC[P+](CCCCCC)(CCCCCC)CCCCCC.O=S(=O)([N-]S(=O)(=O)C(F)(F)F)C(F)(F)F
Conditions	viscosity [mPa·s]
288.15 K, x2 = 0.7	693 ± 90
293.15 K, x2 = 0.5	502 ± 64
293.15 K, x2 = 0.7	495 ± 63
303.15 K, x2 = 0.401	288 ± 36
303.15 K, x2 = 0.5	270 ± 34
303.15 K, x2 = 0.7	270 ± 34
308.15 K, x2 = 0.203	217 ± 27
308.15 K, x2 = 0.5	204 ± 25
308.15 K, x2 = 0.902	181 ± 22
